Laboratory results: patent US11738027B2, “MPO inhibitors for use in medicine” (AstraZeneca AB, priority 2017, dated 2023)

Experiments:
[1] = tested on: human sperm with activated human neutrophils; assay: Sperm motility assessment (Hamilton-Thorn CASA) with activated neutrophils; assay type: cell-based; conditions: 3 μM
Procedure: (§1) The neutrophils were then added to the sperm in sperm-safe 5 mL Polystyrene round bottom tubes (Falcon) at a ratio of about 1:3.
Sperm motility was assessed using the Hamilton-Thorn CASA system. For each condition, a total of 200 cells were counted in at least four different fields of view. Where a sample had very low motility at least 100 cells were counted. The motility parameters were assessed at the start of the co-incubation with neutrophils (time 0), after 2 h and after 24 h. Motility was expressed as a percentage different between time 0 and after 2 h and percentage difference after time 0 and after 24 h for each time point for each sample.

human MPO = molecular target: T1, human MPO (Homo sapiens, UniProt P05164); assay: MPO inhibition; assay type: biochemical; conditions: read-out: IC50, irreversible inhibitor of human MPO
T1 sequence (P05164 49-745): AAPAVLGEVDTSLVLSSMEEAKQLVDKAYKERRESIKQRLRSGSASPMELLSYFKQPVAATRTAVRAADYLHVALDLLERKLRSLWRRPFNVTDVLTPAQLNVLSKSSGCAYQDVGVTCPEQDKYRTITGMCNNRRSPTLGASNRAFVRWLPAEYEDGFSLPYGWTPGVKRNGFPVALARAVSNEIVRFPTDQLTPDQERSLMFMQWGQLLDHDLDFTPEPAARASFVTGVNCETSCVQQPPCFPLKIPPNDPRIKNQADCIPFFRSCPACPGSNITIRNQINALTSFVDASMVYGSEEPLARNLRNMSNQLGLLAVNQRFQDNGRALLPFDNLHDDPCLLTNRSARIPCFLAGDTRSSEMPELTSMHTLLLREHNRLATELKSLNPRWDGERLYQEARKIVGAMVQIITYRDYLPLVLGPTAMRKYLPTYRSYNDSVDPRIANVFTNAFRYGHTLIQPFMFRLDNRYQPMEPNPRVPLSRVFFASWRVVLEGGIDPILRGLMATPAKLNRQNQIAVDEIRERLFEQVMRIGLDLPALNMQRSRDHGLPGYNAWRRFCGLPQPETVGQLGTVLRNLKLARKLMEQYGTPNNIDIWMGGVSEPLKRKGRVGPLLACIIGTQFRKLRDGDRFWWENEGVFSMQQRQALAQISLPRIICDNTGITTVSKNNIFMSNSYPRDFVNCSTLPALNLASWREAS

[2] = Phase 1 studies in healthy volunteers, adverse events; assay type: in vivo, human; conditions: oral, single doses up to 1200 mg (1400 mg ER), multiple up to 325 mg TID (600 mg BID 10 days ER), 181 subjects
[3] = tested on: in situ zymosan activated peritoneum neutrophils; assay: In vivo glutathione sulphonamide formation; design: species or system rat; conditions: rats, plasma concentration of ~5 μM
[4] = tested on: isolated human neutrophils; assay: PMA stimulated HOCl in isolated neutrophils; assay type: cell-based; conditions: Neutrophil
[5] = tested on: human sperm with activated human neutrophils; assay: Kremer penetration assay; assay type: cell-based; conditions: 3 μM
Procedure: as §1
The Kremer penetration test assesses a sperm cell's ability to penetrate and swim through viscous media. This test is also known as the sperm-cervical mucus penetration test. A cervical mucus substitute was made up using 1% methyl cellulose dissolved in capacitating media. The solution was gassed in a 37° C. 5% CO2 incubator for 20 min. Then flat capillary tubes (Rectangle Boro Tubing, CM Scientific) were placed in the methyl cellulose solution for a further 20 min to allow the media to flow up the capillary tubes. After the 2 h incubation, 100 μL from each condition was aliquoted into a fresh sperm safe tube. One end of each tube was then blocked using plasticine and then one tube was placed open end first into each test condition. Each sperm safe tube containing a capillary tube was incubated 1 hour at 37° C. with 5% CO2. After 1 h, the capillary tubes were removed and the number of cells at 1 cm mark were counted manually. The results were expressed as a ratio to control (sperm only).

human sperm = conditions: 4 mM, 2-hour incubation, N=29, P<0.01
Procedure: A 10 mM stock solution of the drug was made up in 100% DMSO. This was then serially diluted to a working concentration of 3 μM using sEBSS as the diluent and stored at 4° C. The drug or vehicle was then added to the neutrophils and placed in a 37° C. water bath for 10 min. The neutrophils were then added to the sperm in sperm-safe 5 mL Polystyrene round bottom tubes (Falcon) at a ratio of about 1:3. Zymosan at a final concentration of 1 μg/ml was added to activate the neutrophils and incubated for 2 hours at 37° C.
Following the 2 h incubation with activated neutrophils, aliquots of 50 μL were taken from all 4 conditions and transferred into 1.5 mL Eppendorf tubes. H2O2 was used as a positive control. An extra aliquot for a secondary only control was taken from the sperm only tube. The cells (except the secondary only tube) were incubated for 0.5 h at 37° C. with an anti-malondialdehyde (MDA) antibody (ab27642, abcam, Cambridge) at a working ratio of 1:50 (Moazamian R, Polhemus A, Connaughton H, Fraser B, Whiting S, Gharagozloo P, Aitken R J. Mol Hum Reprod 2015; 21(6):502-15). […] The level of MDA staining in each condition was then assessed in 10,000 cells using a pre-validated flow cytometry program in a BD LSRFortessa cell analyser. Due to a technical error one sample was unable to be assessed using flow cytometry.

Structure (SMILES): O=c1[nH]c(=S)n(C[C@H]2CCCO2)c2nc[nH]c12 [AZD5904, 3-[[(2R)-tetrahydrofuran-2-yl]methyl]-2-thioxo-7H-purin-6-one]
- absolute change in overall sperm motility from baseline to 2 h and 24 h ([1]; first 11 subjects, vs vehicle, two-tailed t-test P=0.09): statistical trend
- percentage differences between CASA measurements at time zero and after 24-hour incubation (motility, progressive, rapid, VAP, VSL, VCL, ALH) ([1]; n=29, vs vehicle, not statistically significant (P>0.1)): positive trend
- IC50 (human MPO): 140 nM
- drug-related adverse events [2]: No overtly drug-related adverse event
- in vivo formation of glutathione sulphonamide [3]: decreased
- inhibition at 1 µM [4]: > 90%
- patients with clinically-relevant beneficial effect ([5]; 29 patients evaluated): over 50%
- sperm found at 1 cm versus vehicle ([5]; 2 h incubation, n=29, p=0.02): significantly more sperm
- further subjects showing a smaller improvement ([5]; of 29 patients): 8
- subjects with clinically-relevant improvement in sperm penetration ([5]; of the 29 subjects): 15

Structure (SMILES): OO [H2O2, hydrogen peroxide]
- MDA staining versus the other conditions (human sperm): stained significantly more
